≈ marks a conversion by molar mass, not a printed value. Bridge positions count the residues as written; N and C are the ends. Peptide text beside a SMILES is read from it. I, II: the chains in the order shown.
Columns and labels:
[1] = test system: Candida albicans ATCC10231; format: cell-based
Description: (§1) MICs was determined by broth macrodilution method modified from that described by the National Committee for Clinical Laboratory Standards (NCCL). The Mueller Hinton Broth (MHB) at ⅙ strength and without addition of Ca^2+ and Mg^2+ was used for dilution. Serial twofold dilutions of V2 dimer solution was prepared in MHB (⅙ strength) in test tubes. 1 ml of inoculum of test organisms in MHB (⅙ strength) was added to 1 ml of each dilution of V2 dimer to yield as final concentration of 10^4 to 10^5 colony forming units/ml in each test tube. The tubes were incubated at 35° C. for 16 to 20 hours. A positive control containing only the broth and organism, and a negative control tube containing only the broth were also incubated in parallel to the test samples. The above was repeated for each different test organism in separate experiments. The MIC of V2 dimer peptide for each clinical isolate or reference organism was read as the lowest concentration of peptide that inhibited visible growth of the test organism.
(§2) The MIC was also determined for other peptides and compared to gentamicin.

[2] = test system: Clinical Escherichia coli DB16027 Source: Blood; format: cell-based; settings: Clinical DB16027 Source: Blood
Description: as §1, §2

[3] = test system: Clinical Escherichia coli DU46381R Source: Urine; format: cell-based
Description: as §1, §2

[4] = test system: Clinical Pseudomonas aeruginosa 07DM 023257 Source: Eye; format: cell-based; settings: Clinical 07DM 023257 Source: Eye
Description: as §1, §2

[5] = test system: Clinical Pseudomonas aeruginosa 07DM023376 Source: Eye; format: cell-based; settings: Clinical 07DM023376 Source: Eye
Description: as §1, §2

[6] = test system: Clinical Pseudomonas aeruginosa DM 023104 Source: Eye; format: cell-based; settings: Clinical DM 023104 Source: Eye
Description: as §1, §2

[7] = test system: Clinical Pseudomonas aeruginosa DM 023155 Source: Eye; format: cell-based; settings: Clinical DM 023155 Source: Eye
Description: as §1, §2

[8] = test system: Clinical Pseudomonas aeruginosa PAE 230 DR4877/07 Source: Sputum; format: cell-based; settings: Clinical PAE 230 DR4877/07 Source: Sputum
Description: as §1, §2

[9] = test system: Clinical Pseudomonas aeruginosa PAE 239 DM5790/07 Source: Wound; format: cell-based; settings: Clinical PAE 239 DM5790/07 Source: Wound
Description: as §1, §2

[10] = test system: Clinical Pseudomonas aeruginosa PAE 240 DU14476/07 Source: Urine; format: cell-based; settings: Clinical PAE 240 DU14476/07 Source: Urine
Description: as §1, §2

[11] = test system: Clinical Pseudomonas aeruginosa PAE 249 DM15013 Source: Wound; format: cell-based; settings: Clinical PAE 249 DM15013 Source: Wound
Description: as §1, §2

[12] = test system: Clinical Staphylococcus aureus DM4001 Source: Eye; format: cell-based
Description: as §1, §2

[13] = test system: Escherichia coli ATCC25922; format: cell-based
Description: as §1, §2

[14] = test system: Fusarium solani ATCC 36031; format: cell-based
Description: as §1, §2

[15] = test system: Clinical Cadida albicans DF2672R Source: Urine; format: cell-based, Candida albicans
Description: as §1, §2

Row | Structure (SMILES) | MIC [1] | MIC [2] | MIC [3] | MIC [4] | MIC [5] | MIC [6] | MIC [7] | MIC [8] | MIC [9] | MIC [10] | MIC [11] | MIC [12] | MIC [13] | MIC [14] | MIC [15]
1 | N=C(N)NCCC[C@H](NC(=O)[C@H](CCCNC(=N)N)NC(=O)[C@H](Cc1c[nH]c2ccccc12)NC(=O)[C@H](Cc1c[nH]c2ccccc12)NC(=O)[C@H](CCCCN)NC(=O)[C@H](CCCNC(=N)N)NC(=O)CNC(=O)[C@@H](N)CCCNC(=N)N)C(=O)O [W2-8AA, RGRKWWRR] (H-RGRKWWRR-OH; N-terminus and C-terminus assumed) | 12.5 µg/mL (≈ 10.4 µM) | 6.25 µg/mL (≈ 5.21 µM) | 6.25 µg/mL (≈ 5.21 µM) | >50 µg/mL | 25 µg/mL (≈ 20.8 µM) | 25 µg/mL (≈ 20.8 µM) | 50 µg/mL (≈ 41.7 µM) | >50 µg/mL | >50 µg/mL | 12.5 µg/mL (≈ 10.4 µM) | 50 µg/mL (≈ 41.7 µM) | 12.5 µg/mL (≈ 10.4 µM) | 12.5 µg/mL (≈ 10.4 µM) | 25 µg/mL (≈ 20.8 µM) | 12.5 µg/mL (≈ 10.4 µM)
2 | N=C(N)NCCC[C@H](NC(=O)[C@H](CCCNC(=N)N)NC(=O)[C@H](Cc1ccc(O)cc1)NC(=O)[C@H](Cc1ccc(O)cc1)NC(=O)[C@H](CCCCN)NC(=O)[C@H](CCCNC(=N)N)NC(=O)CNC(=O)[C@@H](N)CCCNC(=N)N)C(=O)O [Y2-8AA, RGRKYYRR] (H-RGRKYYRR-OH; N-terminus and C-terminus assumed) | 25 µg/mL (≈ 21.7 µM) | 25 µg/mL (≈ 21.7 µM) | 25 µg/mL (≈ 21.7 µM) | >50 µg/mL | 50 µg/mL (≈ 43.3 µM) | >50 µg/mL | >50 µg/mL | >50 µg/mL | >50 µg/mL | 6.25 µg/mL (≈ 5.41 µM) | >50 µg/mL | >50 µg/mL | 25 µg/mL (≈ 21.7 µM) | 50 µg/mL (≈ 43.3 µM) | 50 µg/mL (≈ 43.3 µM)
3 | CC(C)[C@H](NC(=O)[C@@H](NC(=O)[C@H](CCCNC(=N)N)NC(=O)[C@H](CCCNC(=N)N)NC(=O)[C@@H](NC(=O)[C@@H](NC(=O)[C@H](CCCCN)NC(=O)[C@H](CCCNC(=N)N)NC(=O)CNC(=O)[C@@H](N)CCCNC(=N)N)C(C)C)C(C)C)C(C)C)C(=O)O [V4 monomer, RGRKVVRRVV] (H-RGRKVVRRVV-OH; N-terminus and C-terminus assumed) | 25 µg/mL (≈ 20.4 µM) | >50 µg/mL | >50 µg/mL | >50 µg/mL | >50 µg/mL | >50 µg/mL | >50 µg/mL | >50 µg/mL | >50 µg/mL | >50 µg/mL | >50 µg/mL | >50 µg/mL | >50 µg/mL | >100 µg/mL | >50 µg/mL
4 | N=C(N)NCCC[C@H](NC(=O)CNC(=O)[C@@H](N)CCCNC(=N)N)C(=O)N[C@@H](CCCCN)C(=O)N[C@@H](Cc1ccc(O)cc1)C(=O)N[C@@H](Cc1ccc(O)cc1)C(=O)N[C@@H](CCCNC(=N)N)C(=O)N[C@@H](CCCNC(=N)N)C(=O)N[C@@H](Cc1ccc(O)cc1)C(=O)N[C@@H](Cc1ccc(O)cc1)C(=O)O [Y4 monomer, RGRKYYRRYY] (H-RGRKYYRRYY-OH; N-terminus and C-terminus assumed) | 12.5 µg/mL (≈ 8.44 µM) | 6.25 µg/mL (≈ 4.22 µM) | 12.5 µg/mL (≈ 8.44 µM) | >50 µg/mL | >50 µg/mL | 50 µg/mL (≈ 33.8 µM) | 25 µg/mL (≈ 16.9 µM) | >50 µg/mL | 50 µg/mL (≈ 33.8 µM) | 25 µg/mL (≈ 16.9 µM) | 50 µg/mL (≈ 33.8 µM) | 12.5 µg/mL (≈ 8.44 µM) | 12.5 µg/mL (≈ 8.44 µM) | 12.5 µg/mL (≈ 8.44 µM) | 25 µg/mL (≈ 16.9 µM)
5 | N=C(N)NCCC[C@H](NC(=O)CNC(=O)[C@@H](N)CCCNC(=N)N)C(=O)N[C@@H](CCCCN)C(=O)N[C@@H](Cc1ccc(O)cc1)C(=O)N[C@@H](Cc1ccc(O)cc1)C(=O)N[C@@H](CCCNC(=N)N)C(=O)N[C@@H](CCCNC(=N)N)C(=O)NCCCC[C@H](NC(=O)[C@H](CCCNC(=N)N)NC(=O)[C@H](CCCNC(=N)N)NC(=O)[C@H](Cc1ccc(O)cc1)NC(=O)[C@H](Cc1ccc(O)cc1)NC(=O)[C@H](CCCCN)NC(=O)[C@H](CCCNC(=N)N)NC(=O)CNC(=O)[C@@H](N)CCCNC(=N)N)C(=O)N[C@@H](CCCCN)C(=O)O [Y2-dimer] (I: H-RGRKYYRRKK-OH / II: H-RGRKYYRR; amide I:9-II:C; N-terminus assumed) | 25 µg/mL (≈ 9.82 µM) | 6.25 µg/mL (≈ 2.45 µM) | 12.5 µg/mL (≈ 4.91 µM) | 12.5 µg/mL (≈ 4.91 µM) | 25 µg/mL (≈ 9.82 µM) | 12.5 µg/mL (≈ 4.91 µM) | 25 µg/mL (≈ 9.82 µM) | 12.5 µg/mL (≈ 4.91 µM) | 12.5 µg/mL (≈ 4.91 µM) | 6.25 µg/mL (≈ 2.45 µM) | 12.5 µg/mL (≈ 4.91 µM) | 12.5 µg/mL (≈ 4.91 µM) | 12.5 µg/mL (≈ 4.91 µM) | 12.5 µg/mL (≈ 4.91 µM) | 12.5 µg/mL (≈ 4.91 µM)
6 | CC(C)[C@H](NC(=O)[C@H](CCCCN)NC(=O)[C@H](CCCNC(=N)N)NC(=O)CNC(=O)[C@@H](N)CCCNC(=N)N)C(=O)N[C@H](C(=O)N[C@@H](CCCNC(=N)N)C(=O)N[C@@H](CCCNC(=N)N)C(=O)NCCCC[C@H](NC(=O)[C@H](CCCNC(=N)N)NC(=O)[C@H](CCCNC(=N)N)NC(=O)[C@@H](NC(=O)[C@@H](NC(=O)[C@H](CCCCN)NC(=O)[C@H](CCCNC(=N)N)NC(=O)CNC(=O)[C@@H](N)CCCNC(=N)N)C(C)C)C(C)C)C(=O)NCCCC[C@H](NC(=O)[C@H](CCCCNC(=O)[C@H](CCCNC(=N)N)NC(=O)[C@H](CCCNC(=N)N)NC(=O)[C@@H](NC(=O)[C@@H](NC(=O)[C@H](CCCCN)NC(=O)[C@H](CCCNC(=N)N)NC(=O)CNC(=O)[C@@H](N)CCCNC(=N)N)C(C)C)C(C)C)NC(=O)[C@H](CCCNC(=N)N)NC(=O)[C@H](CCCNC(=N)N)NC(=O)[C@@H](NC(=O)[C@@H](NC(=O)[C@H](CCCCN)NC(=O)[C@H](CCCNC(=N)N)NC(=O)CNC(=O)[C@@H](N)CCCNC(=N)N)C(C)C)C(C)C)C(=O)N[C@@H](CCCCN)C(=O)O)C(C)C [V2-tetramer] (I: H-RGRKVVRRKKK-OH / II: H-RGRKVVRRK / III: H-RGRKVVRR / IV: H-RGRKVVRR; amide I:9-IV:C, I:10-II:C, II:9-III:C; N-terminus assumed) | 12.5 µg/mL (≈ 2.74 µM) | 6.25 µg/mL (≈ 1.37 µM) | 6.25 µg/mL (≈ 1.37 µM) | 12.5 µg/mL (≈ 2.74 µM) | 6.25 µg/mL (≈ 1.37 µM) | 6.25 µg/mL (≈ 1.37 µM) | 6.25 µg/mL (≈ 1.37 µM) | 12.5 µg/mL (≈ 2.74 µM) | 12.5 µg/mL (≈ 2.74 µM) | 6.25 µg/mL (≈ 1.37 µM) | 6.25 µg/mL (≈ 1.37 µM) | 12.5 µg/mL (≈ 2.74 µM) | 12.5 µg/mL (≈ 2.74 µM) | 3.125 µg/mL (≈ 0.685 µM) | 12.5 µg/mL (≈ 2.74 µM)
7 | N=C(N)NCCC[C@H](NC(=O)CNC(=O)[C@@H](N)CCCNC(=N)N)C(=O)N[C@@H](CCCCN)C(=O)N[C@@H](Cc1c[nH]c2ccccc12)C(=O)N[C@@H](Cc1c[nH]c2ccccc12)C(=O)N[C@@H](CCCNC(=N)N)C(=O)N[C@@H](CCCNC(=N)N)C(=O)NCCCC[C@H](NC(=O)[C@H](CCCNC(=N)N)NC(=O)[C@H](CCCNC(=N)N)NC(=O)[C@H](Cc1c[nH]c2ccccc12)NC(=O)[C@H](Cc1c[nH]c2ccccc12)NC(=O)[C@H](CCCCN)NC(=O)[C@H](CCCNC(=N)N)NC(=O)CNC(=O)[C@@H](N)CCCNC(=N)N)C(=O)N[C@@H](CCCCN)C(=O)O [W2-dimer] (I: H-RGRKWWRRKK-OH / II: H-RGRKWWRR; amide I:9-II:C; N-terminus assumed) | 12.5 µg/mL (≈ 4.74 µM) | 12.5 µg/mL (≈ 4.74 µM) | 6.25 µg/mL (≈ 2.37 µM) | 12.5 µg/mL (≈ 4.74 µM) | 25 µg/mL (≈ 9.47 µM) | 12.5 µg/mL (≈ 4.74 µM) | 12.5 µg/mL (≈ 4.74 µM) | 12.5 µg/mL (≈ 4.74 µM) | 12.5 µg/mL (≈ 4.74 µM) | 12.5 µg/mL (≈ 4.74 µM) | 6.25 µg/mL (≈ 2.37 µM) | 12.5 µg/mL (≈ 4.74 µM) | 25 µg/mL (≈ 9.47 µM) | 12.5 µg/mL (≈ 4.74 µM) | 12.5 µg/mL (≈ 4.74 µM)

— patent publication US9220264B2, “Multimeric forms of antimicrobial peptides” (Singapore Health Services Pte Ltd., priority 2008, dated 2015)
